The record followed here is patent publication US8802240B2, “Uses of formulations of thyroid hormone analogs and nanoparticulate forms thereof to increase chemosensitivity and radiosensitivity in tumor or cancer cells” (Nanopharmaceuticals LLC, priority 2011, dated 2014).

The test system of data set [1] is chick chorioallantoic membrane (CAM) blood vessel branch points. Kind of data set: Chick chorioallantoic membrane (CAM) model of angiogenesis. Type of data set: in vivo. The method, then: In vivo neovascularization was examined by methods described previously. 9-12 Ten-day-old chick embryos were purchased from SPAFAS (Preston, Conn.) and incubated at 37° C. with 55% relative humidity. A hypodermic needle was used to make a small hole in the shell concealing the air sac, and a second hole was made on the broad side of the egg, directly over an avascular portion of the embryonic membrane that was identified by candling. A false air sac was created beneath the second hole by the application of negative pressure at the first hole, causing the CAM to separate from the shell. […] Thyroid hormone, hormone analogs, FGF2 or control solvents, and inhibitors were then applied to the disks and the disks allowed to dry. The disks were then suspended in PBS and placed on growing CAMs. […] At 24 hours, the MAPK cascade inhibitor PD 98059 was also added to CAMs topically by means of the filter disks. […] The number of vessel branch points contained in a circular region equal to the area of each filter disk were counted. […] In addition, each experiment was performed 3 times. The resulting angiogenesis index is the mean±SEM of new branch points.

The test system of data set [2] is matrigel plug angiogenesis. Kind of data set: Mouse matrigel model of angiogenesis (plug hemoglobin). Type of data set: in vivo, mice (C57BL/6NCr). The conditions noted are these: for inhibition in vivo at 10 µg/plug: Mus musculus, FGF 100 ng + test substance 10 μg/plug; for inhibition in vivo at 10 µg/plug / inhibition of FGF-induced angiogenesis (in words): numbers are Tetrac analogs of Example 13. The method, then: Normal male mice (C57BL/6NCr) 6-8 weeks of age and weighing ˜20 g were purchased from Taconic farm. Animals were housed 4 per cage, in controlled conditions of temperature (20-24° C.); humidity (60-70%) and 12 hrs. light/dark cycle provided with food and water ad libitum. […] Aliquots of matrigel were placed into cold polypropylene tubes to prevent the matrigel from solidifying and the angiogenesis promoter added to matrigel with or without agonist. Mice were treated daily. Matrigel was subcutaneously injected as triple injection per animal at 100 μL/animal. At day 14 post plug implant all animals were killed in CO2 chamber and matrigel plugs were collected. Plug hemoglobin content was analyzed from three implants/mice (n=6 per group) to measure angiogenesis.
The matrigel plugs dissected from the mice were carefully stripped of any remaining peritoneum. The plugs were placed into 0.5 mL tube of ddH2O and homogenized for 5-10 min. […] Absorbance was read with a Microplate Manager ELISA reader at 540 nm. […] Hemoglobin concentration is a reflection of the number of blood vessels in the plugs.

Setting [3] is: Gallus gallus, read-out: Mean % of stimulation (comparing to PBS).
Setting [4] is: 0.01 uM; n = 8 per group; PBS (Control) 89.4 ± 9.3.
Where [5] appears, read: 0.1 uM; n = 8 per group; PBS (Control) 89.4 ± 9.3.
[6] abbreviates: 10 μg/matrigel plug, numbers are T4 analogs of Example 12, n = 6-7, Control 0.3 ± 0.1.
Where [7] appears, read: numbers are T4 analogs of Example 12.
The mark [8] stands for this setting: T4 + test substance, each 10 μg/matrigel plug, n = 25, T4 alone 1.2 ± 0.4.
[9] abbreviates: 1 μM; numbers are T4 analogs of Example 12.
Where [10] appears, read: 1 μM; numbers are T4 analogs of Example 12; mean ± SEM, n = 8; PBS 73 ± 6.
The mark [11] stands for this setting: 10 μg/matrigel plug, numbers are T4 analogs of Example 12.

As usually defined, the melting point is the temperature of the solid-liquid transition. By inhibition in vivo is commonly meant the drop in the measured response relative to a control, in per cent.

“And” between values parts separate entries of the source, which are not always exact repeats. Identical values can stand only once. Like-named read-outs stand apart in the source and are kept apart here.

As for `CC(C)[Si](OC(=O)Cc1cc(I)c(Oc2cc(I)c(OCC3CO3)c(I)c2)c(I)c1)(C(C)C)C(C)C` (centres unmarked), the melting point is 120 °C.
With `O=C(Cc1cc(I)c(Oc2cc(I)c(OCC3CO3)c(I)c2)c(I)c1)OCC1CO1` (centres unmarked), the melting point was 116 °C.
In turn, `CC(C)(C)OC(=O)NC(Cc1cc(I)c(Oc2cc(I)c(OCC3CO3)c(I)c2)c(I)c1)C(=O)OCC1CO1` (centres unmarked) (hydrate or solvate) [T4 analog 14, Oxiran-2-ylmethyl-2-(tert-butoxycarbonylamino)-3-(4-(3,5-diiodo-4-(oxiran-2-ylmethoxy)phenoxy)-3,5-diiodophenyl)propanoate] displayed a melting point of 105 °C.
The compound `CC(C)[Si](OC(=O)C(Cc1cc(I)c(Oc2cc(I)c(OCC3CO3)c(I)c2)c(I)c1)NC(=O)OC(C)(C)C)(C(C)C)C(C)C` (centres unmarked) (hydrate or solvate) [T4 analog 15, Triisopropylsilyl-2-(tert-butoxycarbonylamino)-3-(4-(3,5-diiodo-4-(oxiran-2-ylmethoxy)phenoxy)-3,5-diiodophenyl)propanoate] registered a melting point of 109 °C.
`CC(C)(C)OC(=O)NC(Cc1cc(I)c(Oc2cc(I)c(O)c(I)c2)c(I)c1)C(=O)O` (centres unmarked) [Compound 7]: the change in vivo at 0.1 µM in data set [1] (setting [3]) came out at 137 ± 7.5%.
Consider `CC(=O)NC(Cc1cc(I)c(Oc2cc(I)c(OC(C)=O)c(I)c2)c(I)c1)C(=O)O` (centres unmarked) [Compound 9], for which, in data set [1] (Gallus gallus; read-out: Mean % of stimulation (comparing to PBS)), the change in vivo at 0.1 µM is 67.1 ± 5%.
`O=C(O)Cc1cc(I)c(Oc2cc(I)c(OCC3CO3)c(I)c2)c(I)c1` (centres unmarked) [Compound 9]: the inhibition in vivo at 10 µg/plug in data set [2] was found to be 100 ± 12%.
For the compound `O=C(O)CCc1cc(I)c(Oc2ccc(O)cc2)c(I)c1` [DITPA, 3,5-diiodothyropropionic acid], the “ANGIOGENESIS INDEX” value is listed as 133.0 ± 11.6 in data set [1] (setting [4]), 167.3 ± 12.7 in data set [1] (setting [5]) and 117.9 ± 5.6 in data set [1] (0.2 mM; n = 8 per group; PBS (Control) 89.4 ± 9.3).
As to `Cc1cc(OCC(=O)O)cc(C)c1Cc1ccc(O)c(C(C)C)c1` [GC-1, 3,5-dimethyl-4-(4′-hydroxy-3′-isopropylbenzyl)-phenoxy acetic acid], the results for the “ANGIOGENESIS INDEX” value in data set [1] (setting [4]) and in data set [1] (setting [5]) were 169.6 ± 11.6 and 152.7 ± 9.0, respectively.
For `O=C(O)C(Cc1cc(I)c(Oc2cc(I)c(O)c(I)c2)c(I)c1)NC(c1ccccc1)(c1ccccc1)c1ccccc1` (centres unmarked) [PRIAB2], the “Branch pts ± SEM” value in data set [1] (0.1 μM; PBS 76.0 ± 8.5) was determined as 136.0 ± 18.1.
Still for that read-out and setting: in the case of `CNC(Cc1cc(I)c(Oc2cc(I)c(O)c(I)c2)c(I)c1)C(=O)O` (centres unmarked) [PRIAB6] it was 136.2 ± 12.4.
Regarding `CCNC(Cc1cc(I)c(Oc2cc(I)c(O)c(I)c2)c(I)c1)C(=O)O` (centres unmarked) [PRIAB12], in data set [1] (0.1 μM; PBS 76.0 ± 8.5), the “Branch pts ± SEM” value is 121.7 ± 13.6.
As for `CC(C)(C)OC(=O)NC(Cc1cc(I)c(Oc2cc(I)c(O)c(I)c2)c(I)c1)C(=O)O` (centres unmarked) [T4 analog 7, 2-[(Tert-butoxycarbonyl)amino]-3-[4-(4-hydroxy-3,5-diiodophenoxy)-3,5-diiodophenyl]propanoic acid], the “Branch pts ± SEM” value in data set [1] (0.1 μM; PBS 65.2 ± 14.9) is recorded as 173 ± 9.9.
Take `CNC(Cc1cc(I)c(Oc2cc(I)c(O)c(I)c2)c(I)c1)C(=O)[O-].O.O.[K+]` (centres unmarked) [T4 analog 10, Potassium 3-[4-(4-hydroxy-3,5-diiodophenoxy)-3,5-diiodophenyl]-2-(methylamino)propanoate dihydrate]: the “Mean % of stimulation (comparing to PBS)” value in data set [1] (0.1 μM; numbers are T4 analogs of Example 12) was 43.8 ± 6.5%. Moreover, the “Mean Branch points” value in data set [1] (0.1 μM; numbers are T4 analogs of Example 12; mean ± SEM, n = 8; PBS 73 ± 6) is reported as 105 ± 7. Further, in data set [2] (10 μg/matrigel plug, numbers are T4 analogs of Example 12, dihydrate), the “Mean stimulation of angiogenesis (%)” value was 87% and 87 ± 33%. In data set [2] (setting [6]), the “Hemoglobin (mg/mL) ± SEM” value came out at 0.8 ± 0.2 mg/mL.
For `CCNC(Cc1cc(I)c(Oc2cc(I)c(O)c(I)c2)c(I)c1)C(=O)O` (centres unmarked) [T4 analog 11, 2-(Ethylamino)-3-[4-(4-hydroxy-3,5-diiodophenoxy)-3,5-diiodophenyl]propanoic acid], the “effect on angiogenesis, representative illustrations FIG. 23 (in words)” value (“effect on angiogenesis” below) in data set [1] (setting [7]) is on record as “proangiogenesis”.
In the case of `CCNC(Cc1cc(I)c(Oc2cc(I)c(O)c(I)c2)c(I)c1)C(=O)OCC` (centres unmarked) [T4 analog 12, Ethyl-2-(ethylamino)-3-[4-(4-hydroxy-3,5-diiodophenoxy)-3,5-diiodophenyl]propanoate], in data set [1] (FGF (1.25 μg/ml) + T4 analog 12 (0.1 μM); PBS 73 ± 6), the “Mean Branch points” value was determined as 46 ± 2. In data set [1] (T4 analog of Example 12), the “effect on FGF and T4 activity, CAM and matrigel assays (in words)” value is “entirely inhibiting FGF and T4 activity”. In addition, in data set [1] (setting [7]), the “effect on angiogenesis” value was “anti-angiogenic”. In data set [2] (setting [8]), the “Hemoglobin (mg/mL) ± SEM” value is reported as 0.4 ± 0.1 mg/mL.
For `CC(C)[Si](OC(=O)C(Cc1cc(I)c(Oc2cc(I)c(O)c(I)c2)c(I)c1)NC(=O)OC(C)(C)C)(C(C)C)C(C)C` (centres unmarked) [T4 analog 13, Triisopropylsilyl-2-(tert-butoxycarbonylamino)-3-(4-(4-hydroxy-3,5-diiodophenoxy)-3,5-diidoclophenyl)propanoate], the “Mean % of stimulation (comparing to PBS)” value in data set [1] (setting [9]) came out at 4.1 ± 6.5%. For the same compound, the “Mean Branch points” value in data set [1] (setting [10]) amounted to 76 ± 7; in data set [1] (FGF (1.25 μg/ml) + test substance, 10 μg/plug per footnote; numbers are Tetrac analogs of Example 13; n = 8; PBS 73 ± 6, FGF 130 ± 11), 105 ± 7. The “Mean % Inhibition” value in data set [1] (FGF (1.25 μg/ml) + test substance, 10 μg/plug per footnote; numbers are Tetrac analogs of Example 13) is recorded as 44 ± 13%. Besides, the “Mean stimulation of angiogenesis (%)” value in data set [2] (setting [11]) stood at 0 ± 17%. In addition, the “Hemoglobin (mg/mL) ± SEM” value in data set [2] (setting [6]) is on record as 0.3 ± 0.1 mg/mL.
Take `CC(C)(C)OC(=O)NC(Cc1cc(I)c(Oc2cc(I)c(OCC3CO3)c(I)c2)c(I)c1)C(=O)OCC1CO1` (centres unmarked) [T4 analog 14, Oxiran-2-ylmethyl-2-(tert-butoxycarbonylamino)-3-(4-(3,5-diiodo-4-(oxiran-2-ylmethoxy)phenoxy)-3,5-diiodophenyl)propanoate]: the “Mean % of stimulation (comparing to PBS)” value in data set [1] (setting [9]) turned out to be 56.2 ± 7.5%. Further, the “Mean Branch points” value in data set [1] (setting [10]) is 114 ± 11. Besides, in data set [2] (setting [11]), the “Mean stimulation of angiogenesis (%)” value is on record as 0 ± 17%. Also, the “Hemoglobin (mg/mL) ± SEM” value in data set [2] (setting [6]) is listed as 0.3 ± 0.1 mg/mL.
Turning to `CC(C)[Si](OC(=O)C(Cc1cc(I)c(Oc2cc(I)c(OCC3CO3)c(I)c2)c(I)c1)NC(=O)OC(C)(C)C)(C(C)C)C(C)C` (centres unmarked) [T4 analog 15, Triisopropylsilyl-2-(tert-butoxycarbonylamino)-3-(4-(3,5-diiodo-4-(oxiran-2-ylmethoxy)phenoxy)-3,5-diiodophenyl)propanoate], the “Mean Branch points” value in data set [1] (setting [10]) was 98 ± 8. The change in vivo at 1 µM in data set [1] (setting [3]) is 34.2 ± 7%. Besides, the “effect on angiogenesis” value in data set [1] (setting [7]) was “no effect”. Also, in data set [2] (setting [11]), the “Mean stimulation of angiogenesis (%)” value is 0 ± 17%. Moreover, in data set [2] (setting [6]), the “Hemoglobin (mg/mL) ± SEM” value came to 0.3 ± 0.1 mg/mL.
Regarding `CC(C)(C)OC(=O)Cc1cc(I)c(Oc2cc(I)c(O)c(I)c2)c(I)c1` [Tetrac analog 3, tert-Butyl-2-(4-(4-hydroxy-3,5-diiodophenoxy)-3,5-diiodophenyl)acetate], the “inhibition of FGF-induced angiogenesis (in words)” value in data set [2] was “strong”.
On to `O=C(Cc1cc(I)c(Oc2cc(I)c(O)c(I)c2)c(I)c1)NC1CCCCC1` [Tetrac analog 4, N-cyclohexyl-2-(4-(4-hydroxy-3,5-diiodophenoxy)-3,5-diiodophenyl)acetamide], for which the “inhibition of angiogenesis in the CAM assay (in words)” value in data set [1] (numbers are Tetrac analogs of Example 13) was “not as strong as compounds 3, 5, 7, and 9”. In data set [2], the inhibition in vivo at 10 µg/plug is 104 ± 12% and the “inhibition of FGF-induced angiogenesis (in words)” value is given as “strong”.
Turning to “FGF2: human recombinant FGF2, basic fibroblast growth factor, standard proangiogenic agent”, the “ANGIOGENESIS INDEX” value in data set [1] (1 uM; n = 8 per group; PBS (Control) 89.4 ± 9.3) worked out at 155 ± 9. In addition, the “Branch pts ± SEM” value in data set [1] (1.25 μg/ml; PBS 76.0 ± 8.5) stood at 137.9 ± 7.5. Moreover, the “Mean % of stimulation (comparing to PBS)” value in data set [1] (FGF 1.25 μg/mL alone) was determined as 178.1 ± 7.5%. The “Mean Branch points” value in data set [1] (FGF 1.25 μg/mL alone; n = 8; PBS 73 ± 6) came to 130 ± 11. In addition, in data set [1] (FGF2 1 μg/mL), the “stimulation of branch formation” value is 2.2 fold. In data set [1] (FIG. 5, 3 experiments; concentration not given), this compound displayed an increase in angiogenesis of 2 fold. Further, the “Hemoglobin (mg/mL) ± SEM” value in data set [2] (FGF 100 ng alone, Control 0.3 ± 0.1) is recorded as 2.4 ± 0.4 mg/mL.
tetraiodothyroacetic acid [Tetrac]: the “Mean inhibition of angiogenesis (%)” value in data set [2] (T4 + test substance, each 10 μg/matrigel plug) turned out to be 89 ± 11%. Besides, in data set [2] (setting [8]), the “Hemoglobin (mg/mL) ± SEM” value is given as 0.4 ± 0.1 mg/mL.
